# Where two headings read alike, the source gives them in different places.
# Experiments:
# [1] = target: T1, IKs, slow component of the delayed rectifier K-current (Homo sapiens, UniProt P51787); test: Voltage clamp: slow component of the delayed rectifier K-current; type: cell-based; parameters: key: Yes: The compound has been demonstrated to inhibit the particular current (reference within parenthesis).; No: The compound has been demonstrated to not inhibit the particular current (reference within parenthesis).; U: No data regarding interaction of the compound with the particular current has been found in the literature; conditions: Table 2, own voltage clamp data
# From the text: (§1) Results from voltage clamp experiments with compounds of the invention on other ion-currents than IK(Ado), IK(ACh) and IK(ATP) are included in Table 2.
# [2] = tested on: Ito, transient outward K-current; test: Voltage clamp: transient outward K-current; type: cell-based; parameters: key: Yes: The compound has been demonstrated to inhibit the particular current (reference within parenthesis).; No: The compound has been demonstrated to not inhibit the particular current (reference within parenthesis).; U: No data regarding interaction of the compound with the particular current has been found in the literature; conditions: Table 2, own voltage clamp data
# From the text: as §1
# [3] = target: T2, IK(ATP), ATP-sensitive K-current (Homo sapiens, UniProt Q14654); test: Voltage clamp on cardiomyocyte cultures: inhibition of ATP-sensitive K-current (induced with DNP); type: cell-based; parameters: key: Yes: The compound has been demonstrated to inhibit the particular current (reference within parenthesis).; No: The compound has been demonstrated to not inhibit the particular current (reference within parenthesis).; U: No data regarding interaction of the compound with the particular current has been found in the literature; conditions: Table 2, own voltage clamp data
# T2 construct: electrophysiology technique applied to cardiomyocyte cultures; endogenous in cells; current induced with dinitrophenole
# From the text: (§2) In the present invention acute and chronic effects of various compounds have been investigated by using electrophysiology technique applied to cardiomyocyte cultures.
# (§3) The inhibitory effects occur within seconds after induction of the current with ACh, Ado or dinitrophenole (DNP reduces intracellular ATP). The acute inhibitory effects caused by the compounds of the present invention on these K-currents in cardiac muscle tissue had not previously been discovered. The reasons for this include the fact that these ligand activated K-currents (IK(Ado), IK(ACh) and IK(ATP)) are preferentially active in the atrial cardiomyocytes (Workman A J et al. Cardiovasc Res 1999 September;43(4):974-84; Koumi S-I, and Wasserstorm A. American Journal of Physiology 266[35], H1812-H1821. 1994), while previous studies have been carried out with tissue from cardiac ventricles. Furthermore, IK(Ado) and IK(ACh) must first be induced via the M2 or A1 receptor (with ACh and Ado respectively) before any inhibition can be observed. Without any agonist at the extracellular site of the membrane these ligand-gated channels probably have only minor roles in shaping repolarization but, when activated by extracellular acetylcholine or adenosine, they can substantially shorten action potential duration in the atrium (Tristani-Firouzi M et al. Am J Med 2001 January; 110(1):50-9).
# [4] = target: T3, IK(ACh), AcetylCholine activated K-current (Homo sapiens, UniProt P48544+P48549); test: Voltage clamp on cardiomyocyte cultures: inhibition of K-current induced by ACh or carbachol; type: cell-based; parameters: key to Blocking activity on IK(ACh): Yes: The compound has been demonstrated to inhibit the particular current (reference within parenthesis).; No: The compound has been demonstrated to not inhibit the particular current (reference within parenthesis).; U: No data regarding interaction of the compound with the particular current has been found in the literature; conditions: for Blocking activity on IK(ACh): Table 2, own voltage clamp data; for inhibition at 50 µM: read-out: Inhibition of IK (ACh) (Induced by ACh or Carbachol), % Inh
# T3 construct: electrophysiology technique applied to cardiomyocyte cultures; endogenous in cells
# T3 sequence (P48549 1-501): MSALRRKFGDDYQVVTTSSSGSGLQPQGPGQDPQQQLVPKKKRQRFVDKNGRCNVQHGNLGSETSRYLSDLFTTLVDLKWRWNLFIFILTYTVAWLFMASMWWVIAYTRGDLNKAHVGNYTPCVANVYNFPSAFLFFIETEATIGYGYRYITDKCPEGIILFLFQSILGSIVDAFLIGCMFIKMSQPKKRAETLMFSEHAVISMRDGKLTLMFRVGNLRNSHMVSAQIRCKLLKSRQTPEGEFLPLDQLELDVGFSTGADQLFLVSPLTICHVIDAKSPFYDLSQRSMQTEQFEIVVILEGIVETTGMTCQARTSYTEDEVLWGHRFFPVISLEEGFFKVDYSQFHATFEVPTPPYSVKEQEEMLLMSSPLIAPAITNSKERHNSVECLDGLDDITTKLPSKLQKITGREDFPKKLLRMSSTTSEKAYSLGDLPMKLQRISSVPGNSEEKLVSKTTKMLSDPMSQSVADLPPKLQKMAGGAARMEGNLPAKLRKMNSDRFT
# T3 sequence (P48544 1-419): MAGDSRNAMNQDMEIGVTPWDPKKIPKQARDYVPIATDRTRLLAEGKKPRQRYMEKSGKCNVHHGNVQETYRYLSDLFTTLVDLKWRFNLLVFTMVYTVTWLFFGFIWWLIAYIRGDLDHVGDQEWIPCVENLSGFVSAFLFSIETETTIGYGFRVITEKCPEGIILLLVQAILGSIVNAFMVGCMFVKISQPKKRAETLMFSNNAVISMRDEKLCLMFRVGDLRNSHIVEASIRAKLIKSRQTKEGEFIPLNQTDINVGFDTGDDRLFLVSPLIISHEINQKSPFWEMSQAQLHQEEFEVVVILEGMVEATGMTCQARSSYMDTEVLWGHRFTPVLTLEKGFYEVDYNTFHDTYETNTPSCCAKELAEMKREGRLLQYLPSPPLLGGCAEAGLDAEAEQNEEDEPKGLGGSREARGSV
# From the text: as §2, §3
# (§4) The following Table 1 illustrates the potency (IC50-values) of compounds of formulae I and II compared with other anti-arrhythmic drugs to inhibit the transmembrane currents IK(Ado) and IK(ACh) after stimulation of the currents with Adenosine or Acetylcholine (or Carbachol).
# [5] = target: T4, IK(Ado), adenosine activated K-current (Homo sapiens, UniProt P48544+P48549); test: Voltage clamp on cardiomyocyte cultures: inhibition of adenosine-induced K-current; type: cell-based; parameters: key to Blocking activity on IK(Ado): Yes: The compound has been demonstrated to inhibit the particular current (reference within parenthesis).; No: The compound has been demonstrated to not inhibit the particular current (reference within parenthesis).; U: No data regarding interaction of the compound with the particular current has been found in the literature; conditions: for Blocking activity on IK(Ado): Table 2, own voltage clamp data; for inhibition at 50 µM: read-out: Inhibition of IK (Ado) Induced by Adenosine, % Inh
# T4 construct: electrophysiology technique applied to cardiomyocyte cultures; endogenous in cells
# T4 sequence (P48549 1-501): T3 sequence (P48549 1-501)
# T4 sequence (P48544 1-419): T3 sequence (P48544 1-419)
# From the text: as §2, §3, §4
# [6] = tested on: IK1, inward rectifier K-current; test: Voltage clamp: inward rectifier K-current; type: cell-based; parameters: key: Yes: The compound has been demonstrated to inhibit the particular current (reference within parenthesis).; No: The compound has been demonstrated to not inhibit the particular current (reference within parenthesis).; U: No data regarding interaction of the compound with the particular current has been found in the literature; conditions: Table 2, own voltage clamp data
# From the text: as §1
# [7] = target: T5, INa, depolarizing Na-current (Homo sapiens, UniProt Q14524); test: Voltage clamp: depolarizing Na-current; type: cell-based; parameters: key: Yes: The compound has been demonstrated to inhibit the particular current (reference within parenthesis).; No: The compound has been demonstrated to not inhibit the particular current (reference within parenthesis).; U: No data regarding interaction of the compound with the particular current has been found in the literature; conditions: Table 2, own voltage clamp data
# From the text: as §1
# [8] = target: T2, IK(ATP), ATP-sensitive K-current; parameters: key: Yes: The compound has been demonstrated to inhibit the particular current (reference within parenthesis).; No: The compound has been demonstrated to not inhibit the particular current (reference within parenthesis).; U: No data regarding interaction of the compound with the particular current has been found in the literature; conditions: Table 2, literature; cited from earlier work
# [9] = target: T5, INa, depolarizing Na-current; parameters: key: Yes: The compound has been demonstrated to inhibit the particular current (reference within parenthesis).; No: The compound has been demonstrated to not inhibit the particular current (reference within parenthesis).; U: No data regarding interaction of the compound with the particular current has been found in the literature; conditions: Table 2, literature; cited from earlier work
# [10] = target: T1, IKs, slow component of the delayed rectifier K-current; parameters: key: Yes: The compound has been demonstrated to inhibit the particular current (reference within parenthesis).; No: The compound has been demonstrated to not inhibit the particular current (reference within parenthesis).; U: No data regarding interaction of the compound with the particular current has been found in the literature; conditions: Table 2, literature; cited from earlier work
# [11] = tested on: IK1, inward rectifier K-current; parameters: key: Yes: The compound has been demonstrated to inhibit the particular current (reference within parenthesis).; No: The compound has been demonstrated to not inhibit the particular current (reference within parenthesis).; U: No data regarding interaction of the compound with the particular current has been found in the literature; conditions: Table 2, literature; cited from earlier work
# [12] = target: T4, IK(Ado), adenosine activated K-current; parameters: key to Blocking activity on IK(Ado): Yes: The compound has been demonstrated to inhibit the particular current (reference within parenthesis).; No: The compound has been demonstrated to not inhibit the particular current (reference within parenthesis).; U: No data regarding interaction of the compound with the particular current has been found in the literature; conditions: cited from earlier work
# [13] = target: T3, IK(ACh), AcetylCholine activated K-current; parameters: key to Blocking activity on IK(ACh): Yes: The compound has been demonstrated to inhibit the particular current (reference within parenthesis).; No: The compound has been demonstrated to not inhibit the particular current (reference within parenthesis).; U: No data regarding interaction of the compound with the particular current has been found in the literature; conditions: cited from earlier work
# [14] = tested on: triiodthyronine (T3)-signalling; test: Antagonism of T3-signalling action in cells; type: cell-based; conditions: manuscript in preparation
# T2 sequence (Q14654 whole entry): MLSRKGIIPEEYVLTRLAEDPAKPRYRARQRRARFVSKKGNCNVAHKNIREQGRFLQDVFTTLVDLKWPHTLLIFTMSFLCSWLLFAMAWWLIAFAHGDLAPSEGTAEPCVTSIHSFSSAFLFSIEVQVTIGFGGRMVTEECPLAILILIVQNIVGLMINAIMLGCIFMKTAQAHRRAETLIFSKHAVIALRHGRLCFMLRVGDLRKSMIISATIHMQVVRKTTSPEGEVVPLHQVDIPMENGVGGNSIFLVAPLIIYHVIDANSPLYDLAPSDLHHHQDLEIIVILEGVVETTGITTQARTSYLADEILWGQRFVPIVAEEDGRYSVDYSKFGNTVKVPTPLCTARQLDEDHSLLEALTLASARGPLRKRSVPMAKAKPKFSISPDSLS
# T2 sequence (O60706 whole entry partner): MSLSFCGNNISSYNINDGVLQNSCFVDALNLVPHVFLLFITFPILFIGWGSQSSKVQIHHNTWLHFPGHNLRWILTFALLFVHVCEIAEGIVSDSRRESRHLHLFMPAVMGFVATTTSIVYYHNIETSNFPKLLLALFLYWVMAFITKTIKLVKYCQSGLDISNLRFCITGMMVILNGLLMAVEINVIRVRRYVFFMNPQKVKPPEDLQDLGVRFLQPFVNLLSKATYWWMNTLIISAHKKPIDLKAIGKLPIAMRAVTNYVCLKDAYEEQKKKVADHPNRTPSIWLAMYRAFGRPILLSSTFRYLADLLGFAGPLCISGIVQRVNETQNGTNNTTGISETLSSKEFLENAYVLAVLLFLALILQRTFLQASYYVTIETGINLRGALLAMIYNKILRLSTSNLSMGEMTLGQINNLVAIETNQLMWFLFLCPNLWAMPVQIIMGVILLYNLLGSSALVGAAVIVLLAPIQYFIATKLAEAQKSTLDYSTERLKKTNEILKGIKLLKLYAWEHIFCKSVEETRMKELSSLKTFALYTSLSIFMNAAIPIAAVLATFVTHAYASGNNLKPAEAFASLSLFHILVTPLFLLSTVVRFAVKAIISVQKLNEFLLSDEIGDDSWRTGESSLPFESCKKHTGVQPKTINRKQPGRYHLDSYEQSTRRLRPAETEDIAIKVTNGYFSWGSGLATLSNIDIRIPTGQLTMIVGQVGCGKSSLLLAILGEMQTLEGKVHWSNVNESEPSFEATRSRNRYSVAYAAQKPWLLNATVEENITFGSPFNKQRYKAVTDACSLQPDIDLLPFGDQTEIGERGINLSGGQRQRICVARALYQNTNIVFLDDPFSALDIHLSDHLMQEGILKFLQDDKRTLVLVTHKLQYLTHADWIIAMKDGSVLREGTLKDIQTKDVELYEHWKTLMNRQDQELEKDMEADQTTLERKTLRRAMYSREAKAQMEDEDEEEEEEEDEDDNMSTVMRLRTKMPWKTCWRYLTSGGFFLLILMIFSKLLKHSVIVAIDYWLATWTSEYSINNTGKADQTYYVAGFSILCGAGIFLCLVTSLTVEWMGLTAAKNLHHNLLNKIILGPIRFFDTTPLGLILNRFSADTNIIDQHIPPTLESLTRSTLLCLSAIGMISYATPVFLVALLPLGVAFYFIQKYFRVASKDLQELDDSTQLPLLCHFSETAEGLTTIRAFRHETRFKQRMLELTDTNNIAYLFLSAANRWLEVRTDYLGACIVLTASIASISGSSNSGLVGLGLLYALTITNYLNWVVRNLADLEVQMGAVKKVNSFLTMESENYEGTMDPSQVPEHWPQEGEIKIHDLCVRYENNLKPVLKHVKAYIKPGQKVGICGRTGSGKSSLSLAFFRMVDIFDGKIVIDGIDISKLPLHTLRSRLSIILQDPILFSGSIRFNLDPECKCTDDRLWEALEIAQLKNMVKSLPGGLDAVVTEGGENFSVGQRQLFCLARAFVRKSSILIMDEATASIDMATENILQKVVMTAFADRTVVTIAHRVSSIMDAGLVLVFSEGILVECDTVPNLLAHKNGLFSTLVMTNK
# T5 sequence (Q14524 whole entry): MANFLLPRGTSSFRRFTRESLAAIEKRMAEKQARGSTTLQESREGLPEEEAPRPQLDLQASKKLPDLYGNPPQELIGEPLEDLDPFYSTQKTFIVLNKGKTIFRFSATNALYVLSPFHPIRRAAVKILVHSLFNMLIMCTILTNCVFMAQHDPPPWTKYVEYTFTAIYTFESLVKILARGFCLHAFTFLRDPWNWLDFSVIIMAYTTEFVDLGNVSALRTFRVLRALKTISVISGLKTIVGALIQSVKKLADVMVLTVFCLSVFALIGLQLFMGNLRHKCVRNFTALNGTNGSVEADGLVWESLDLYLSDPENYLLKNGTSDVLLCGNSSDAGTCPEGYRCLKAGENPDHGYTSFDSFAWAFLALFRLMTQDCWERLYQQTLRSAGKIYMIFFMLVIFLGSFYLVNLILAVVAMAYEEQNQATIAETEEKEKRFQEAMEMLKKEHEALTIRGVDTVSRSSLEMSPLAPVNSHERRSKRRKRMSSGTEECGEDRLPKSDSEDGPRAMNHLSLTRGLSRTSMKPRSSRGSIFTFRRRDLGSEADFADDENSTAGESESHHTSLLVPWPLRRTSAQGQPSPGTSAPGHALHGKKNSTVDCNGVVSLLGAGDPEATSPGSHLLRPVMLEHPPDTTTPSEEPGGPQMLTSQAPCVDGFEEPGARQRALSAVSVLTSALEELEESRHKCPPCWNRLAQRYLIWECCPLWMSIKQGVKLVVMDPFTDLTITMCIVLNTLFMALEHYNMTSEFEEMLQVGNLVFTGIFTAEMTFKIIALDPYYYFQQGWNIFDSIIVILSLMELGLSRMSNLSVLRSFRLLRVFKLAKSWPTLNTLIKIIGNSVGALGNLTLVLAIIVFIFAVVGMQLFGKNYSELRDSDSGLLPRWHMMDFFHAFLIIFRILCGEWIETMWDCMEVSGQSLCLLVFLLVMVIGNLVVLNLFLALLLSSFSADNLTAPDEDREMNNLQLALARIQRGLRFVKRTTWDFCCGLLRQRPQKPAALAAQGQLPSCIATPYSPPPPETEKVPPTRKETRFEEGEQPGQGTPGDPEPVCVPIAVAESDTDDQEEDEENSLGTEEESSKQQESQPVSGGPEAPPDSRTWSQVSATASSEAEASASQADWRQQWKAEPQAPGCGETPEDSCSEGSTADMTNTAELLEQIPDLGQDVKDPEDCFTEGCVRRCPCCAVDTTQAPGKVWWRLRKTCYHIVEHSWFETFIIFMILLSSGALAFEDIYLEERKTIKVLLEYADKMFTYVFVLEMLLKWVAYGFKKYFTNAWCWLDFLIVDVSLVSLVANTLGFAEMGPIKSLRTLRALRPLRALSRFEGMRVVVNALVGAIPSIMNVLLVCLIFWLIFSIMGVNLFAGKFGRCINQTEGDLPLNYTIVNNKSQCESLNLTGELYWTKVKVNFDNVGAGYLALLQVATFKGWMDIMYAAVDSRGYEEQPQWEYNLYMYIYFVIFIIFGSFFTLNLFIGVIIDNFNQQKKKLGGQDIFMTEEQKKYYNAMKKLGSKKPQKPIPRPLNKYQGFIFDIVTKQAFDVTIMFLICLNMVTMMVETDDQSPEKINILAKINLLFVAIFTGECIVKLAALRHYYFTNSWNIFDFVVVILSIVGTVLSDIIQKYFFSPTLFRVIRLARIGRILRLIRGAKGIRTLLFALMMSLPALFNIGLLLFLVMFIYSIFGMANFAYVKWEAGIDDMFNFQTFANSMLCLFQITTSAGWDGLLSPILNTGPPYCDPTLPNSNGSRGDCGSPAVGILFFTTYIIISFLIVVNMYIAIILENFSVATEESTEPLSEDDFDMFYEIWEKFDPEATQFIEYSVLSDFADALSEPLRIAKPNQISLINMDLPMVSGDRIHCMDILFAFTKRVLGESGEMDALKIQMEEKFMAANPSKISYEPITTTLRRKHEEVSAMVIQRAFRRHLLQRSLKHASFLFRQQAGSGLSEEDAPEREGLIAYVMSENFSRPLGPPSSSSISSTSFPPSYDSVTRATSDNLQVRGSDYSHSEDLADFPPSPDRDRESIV
Blocking activity on IKs [1],Blocking activity on IK(ATP) [3],Blocking activity on IK(ACh) [4],inhibition at 50 µM [4] [%],Blocking activity on IK(Ado) [5],inhibition at 50 µM [5] [%],Blocking activity on INa [7],SMILES,Blocking activity on Ito [2],Blocking activity on IK1 [6],Blocking activity on IK(ATP) [8],Blocking activity on INa [9],Blocking activity on IKs [10],Blocking activity on IK1 [11],"Blocking activity on IK(Ado) ([12]; Table 2, literature)","Block of ligand-gated current IK(Ado), in words ([12]; Watanabe et al.)","IC50 ([12]; current induced by adenosine, literature value, read-out: Inhibition of IK (Ado) Induced by Adenosine (IC50)) [nM]","Blocking activity on IK(ACh) ([13]; Table 2, literature)","Block of ligand-gated current IK(ACh), in words ([13]; Watanabe et al.)","IC50 ([13]; current induced by ACh or carbachol, literature value, read-out: Inhibition of IK (ACh) (Induced by ACh or Carbachol) (IC50)) [nM]",Antagonism of triiodthyronine (T3)-signalling action in cells [14]
No,Yes,Yes,100,Yes,100,No,"Cc1oc2ccccc2c1Cc1cc(C(C)C)c(OCC(=O)O)c(C(C)C)c1 [Example E4, 2-methyl-3-(3,5-diisopropyl-4-carboxymethoxybenzyl)benzofuran]",No,No,,,,,,,,,,,
No,Yes,Yes,100,Yes,100,No,"Cc1oc2ccccc2c1Cc1cc(I)c(OCC(=O)O)c(I)c1 [Example E6, 2-methyl-3-(3,5-diiodo-4-carboxymethoxy-benzyl)benzofuran]",No,No,,,,,,,,,,,
,,,,,,,CCCCc1oc2ccccc2c1C(=O)c1cc(I)c(OCCN(CC)CC)c(I)c1 [Amiodarone],,,Yes,Yes,Yes,Yes,Yes,does block,2000,Yes,does block,2000,antagonize

# Reference: patent US20050065208A1, “Benzofuranes and their use in the treatment of atrial fibrillation” (priority 2001, published 2005)
